The source of these data is patent US8563714B2, “Bridged spiro [2.4] heptane derivatives as ALX receptor and/or FPRL2 agonists” (Actelion Pharmaceuticals Ltd., priority 2009, dated 2013).

The term EC50 denotes the concentration that produces a half-maximal response.

The target in one assay is T1, human FPRL2 (Homo sapiens, UniProt P25089).
T1 construct: expressed in transfected cells; host or cells: HEK293 (HEK293-hFPRL2-Gα16)
T1 sequence (P25089 1-353): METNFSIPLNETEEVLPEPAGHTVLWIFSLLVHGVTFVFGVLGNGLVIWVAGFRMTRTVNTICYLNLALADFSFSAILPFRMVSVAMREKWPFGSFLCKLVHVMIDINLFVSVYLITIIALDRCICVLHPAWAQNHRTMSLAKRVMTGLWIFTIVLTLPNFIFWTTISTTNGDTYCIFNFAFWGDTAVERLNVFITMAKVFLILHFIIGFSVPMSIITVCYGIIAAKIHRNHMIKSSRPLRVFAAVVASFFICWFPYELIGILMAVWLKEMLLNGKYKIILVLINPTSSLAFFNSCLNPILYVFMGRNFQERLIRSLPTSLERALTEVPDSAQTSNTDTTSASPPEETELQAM
Description: Intracellular calcium measurements (FLIPR), agonistic activity in HEK293-hFPRL2-Gα16 cells. In kind it is cell-based. Conditions: Fluo-4 calcium FLIPR, normalized to GLY14-Humanin 100 nM. The essentials:
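Peak values after baseline subtraction are expressed relative to 100 nM Gly14-Humanin; compounds diluted in assay buffer from 10 mM DMSO stocks.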
(In general: A change in cytosolic calcium serves as a functional read-out for many receptors and channels.)

The target of the next assay is T2, human ALX receptor (Homo sapiens, UniProt P25090).
T2 construct: expressed in transfected cells; host or cells: HEK293 (HEK293-hALXR-Gα16)
T2 sequence (P25090 1-351): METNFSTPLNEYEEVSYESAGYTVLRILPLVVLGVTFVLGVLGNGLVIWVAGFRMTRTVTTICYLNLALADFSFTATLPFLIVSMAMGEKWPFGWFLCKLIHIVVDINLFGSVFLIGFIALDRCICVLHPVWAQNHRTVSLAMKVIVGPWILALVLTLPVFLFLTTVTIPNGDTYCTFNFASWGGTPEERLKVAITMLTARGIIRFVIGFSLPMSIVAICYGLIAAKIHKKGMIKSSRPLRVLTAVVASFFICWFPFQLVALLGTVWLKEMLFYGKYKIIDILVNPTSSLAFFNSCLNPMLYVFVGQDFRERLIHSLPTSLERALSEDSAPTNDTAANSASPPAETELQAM
Description: Intracellular calcium measurements (FLIPR), agonistic activity in HEK293-hALXR-Gα16 cells. In kind it is cell-based. Conditions: Fluo-4 calcium FLIPR, normalized to WKYMVm 10 nM. The essentials: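 HEK293 cells expressing hALXR and Gα16 were loaded with 1 μM Fluo-4 AM and 20 mM HEPES for 60 min at 37°C, then exposed to serially diluted compound. FLIPR fluorescence was read at ex 488/em 540 nm. Baseline-subtracted peak responses were normalized to 10 nM WKYMVm.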

Consider `CC(=O)c1ncc(CNC(=O)[C@H]2[C@H](C(=O)NCCCCN3CCCC3)[C@H]3C=C[C@@H]2C32CC2)o1` (racemic) [Example 198, (5R*)—N^5-(2-Acetyl-oxazol-5-yl-methyl)-(6R*)—N^6-(4-pyrrolidin-1-yl-butyl)-(4S*,7R*)-[4,7-ethenylene-spiro[2.4]heptane]-5,6-dicarboxamide], for which the EC50 at human FPRL2 turned out to be 462 nM; at human ALX receptor, 92 nM.
As for `COc1ccc(NC(=O)C2C(C(=O)NCCC(N)=O)C3C=CC2C32CC2)cc1` [Example 290, (5R)—N^5-(4-Methoxyphenyl)-(6R)—N^6-(3-amino-3-oxopropyl)-(4S,7R)-[4,7-ethenylene-spiro[2.4]heptane]-5,6-dicarboxamide], the 50% effective concentration (EC50) was found to be 1440 nM on human FPRL2 and 32 nM at human ALX receptor.
For the molecule `O=C(Cc1ccccc1Cl)NC[C@H]1[C@H](C(=O)Nc2ccc(Br)cc2)[C@@H]2C=C[C@H]1C21CC1` (racemic) [Example 162, (5R*)—N^5-(4-Bromo-phenyl)-(6R*)-6-[(2-(2-chloro-phenyl)-acetylamino)-methyl]-(4S*,7R*)-[4,7-ethenylene-spiro[2.4]heptane]-5-carboxamide], the EC50 at human FPRL2 came out at 1730 nM; on human ALX receptor it was 61 nM.
In the same order, the values of `CCCCCNC(=O)[C@H]1[C@H](C(=O)NCCCCN2CCCC2)[C@H]2C=C[C@@H]1C21CC1` (racemic) [Example 122, (5R*)—N^5-Pentyl-(6R*)—N^6-(4-pyrrolidin-1-yl-butyl)-(4S*,7R*)-[4,7-ethenylene-spiro[2.4]heptane]-5,6-dicarboxamide] are 496 nM and 79 nM.
`O=C(NCCCCN1CCCC1)[C@H]1[C@H](C(=O)NCCc2ccccn2)[C@@H]2C=C[C@H]1C21CC1` (racemic) [Example 343, (5R*)—N^5-(2-(Pyridin-2-yl)ethyl)-(6R*)—N^6-(4-pyrrolidino-butyl)-(4S*,7R*)-[4,7-ethenylene-spiro[2.4]heptane]-5,6-dicarboxamide]: the EC50 is 885 nM at human FPRL2 and greater than 2390 nM on human ALX receptor.
`CC(NC(=O)C1C(C(=O)Nc2ccc(Br)cc2)C2C=CC1C21CC1)C(=O)N1CCCCC1` (mixture of isomers) [Example 82, (5R*)—N^5-(4-Bromophenyl)-(6R*)—N^6-(1-piperidin-1-yl-propan-1-on-2-yl)-(4S*,7R*)-[4,7-ethenylene-spiro[2.4]heptane]-5,6-dicarboxamide]: the EC50 on human FPRL2 turned out to be 6590 nM; on human ALX receptor it was 118 nM.
Take `O=C(CCCN1CCCC1)NC[C@H]1[C@H](C(=O)Nc2ccc(Br)cc2)[C@@H]2C=C[C@H]1C21CC1` (racemic) [Example 177, (5R*)—N^5-(4-Bromo-phenyl)-(6R*)-6-[(4-pyrrolidin-1-yl-butanoylamino)-methyl]-(4S*,7R*)-[4,7-ethenylene-spiro[2.4]heptane]-5-carboxamide]: the values for the EC50 at human FPRL2 and at human ALX receptor were 446 nM and 160 nM, respectively.
In the case of `O=C(NCCCCN1CCCC1)[C@H]1[C@H](C(=O)Nc2ccc3[nH]ccc3c2)[C@@H]2C=C[C@H]1C21CC1` (racemic) [Example 147, (5R*)—N^5-(1H-Indol-5-yl)-(6R*)—N^6-(4-pyrrolidin-1-yl-butyl)-(4S*,7R*)-[4,7-ethenylene-spiro[2.4]heptane]-5,6-dicarboxamide], the concentration giving a half-maximal response (EC50) on human FPRL2 stood at 837 nM; at human ALX receptor it was 7410 nM.
With `CC(C)Oc1ccc(CNC(=O)[C@H]2[C@H](C(=O)NCCCCN3CCCC3)[C@H]3C=C[C@@H]2C32CC2)cc1` (racemic) [Example 233, (5R*)—N^5-(4-Isopropoxy-phenyl-methyl)-(6R*)—N^6-(4-pyrrolidin-1-yl-butyl)-(4S*,7R*)-[4,7-ethenylene-spiro[2.4]heptane]-5,6-dicarboxamide], the EC50 at human FPRL2 was 197 nM; at human ALX receptor, 7220 nM.
Turning to `O=C(NCCCCN1CCCC1)C1C(C(=O)Nc2ccc(Br)nc2)C2C=CC1C21CC1` (racemic) [Example 114, (5R*)—N^5-(2-Bromopyridin-5-yl)-(6R*)—N^6-(4-pyrrolidin-1-yl-butyl)-(4S*,7R*)-[4,7-ethenylene-spiro[2.4]heptane]-5,6-dicarboxamide], the EC50 at human FPRL2 worked out at 532 nM; on human ALX receptor it was 1.4 nM.
For the molecule `O=C(NCc1ccoc1)[C@H]1[C@H](C(=O)Nc2ccc(Br)cc2)[C@@H]2C=C[C@H]1C21CC1` (racemic) [Example 50, (5R*)—N^5-(4-Bromophenyl)-(6R*)—N^6-(furan-3-yl-methyl)-(4S*,7R*)-[4,7-ethenylene-spiro[2.4]heptane]-5,6-dicarboxamide], the EC50 was 1080 nM on human FPRL2 and 13 nM at human ALX receptor.
On to `O=C(NCCCCN1CCCC1)[C@H]1[C@H](C(=O)NCc2cc(F)c(Br)c(F)c2)[C@@H]2C=C[C@H]1C21CC1` [Example 328, (5R)—N^5-(4-Bromo-3,5-difluorophenyl-methyl)-(6R)—N^6-(4-pyrrolidino-butyl)-(4S,7R)-[4,7-ethenylene-spiro[2.4]heptane]-5,6-dicarboxamide], for which the EC50 at human FPRL2 was 60 nM; at human ALX receptor, 46 nM.
For `O=C(NC[C@H]1[C@H](C(=O)Nc2ccc(Br)cc2)[C@@H]2C=C[C@H]1C21CC1)c1ccnn1-c1ccccc1` (racemic) [Example 169, (5R*)—N^5-(4-Bromo-phenyl)-(6R*)-6-{[(1-phenyl-1H-pyrazole-5-carbonyl)-amino]-methyl}-(4S*,7R*)-[4,7-ethenylene-spiro[2.4]heptane]-5-carboxamide], the EC50 came out at 1790 nM at human FPRL2 and 112 nM on human ALX receptor.
With `O=C(Nc1ccnn1-c1ccccc1)[C@H]1[C@H](C(=O)Nc2ccc(Br)cc2)[C@@H]2C=C[C@H]1C21CC1` (racemic) [Example 72, (5R*)—N^5-(4-Bromophenyl)-(6R*)—N^6-(1-phenyl-1H-pyrazol-5-yl)-(4S*,7R*)-[4,7-ethenylene-spiro[2.4]heptane]-5,6-dicarboxamide], the EC50 at human FPRL2 stood at 1850 nM; on human ALX receptor, 70 nM.
For `CN(C)CCCNC(=O)[C@H]1[C@H](C(=O)Nc2ncc(Br)s2)[C@@H]2C=C[C@H]1C21CC1` (racemic) [Example 277, (5R*)—N^5-(5-Bromothiazol-2-yl)-(6R*)—N^6-(3-dimethylamino-propyl)-(4S*,7R*)-[4,7-ethenylene-spiro[2.4]heptane]-5,6-dicarboxamide], the EC50 at human FPRL2 came to 2010 nM; on human ALX receptor, 61 nM.
In the same order, the values of `O=C(NCCOCCO)[C@H]1[C@H](C(=O)Nc2ncc(Br)s2)[C@@H]2CC[C@H]1C21CC1` [Example 407, (5R)—N^5-(5-Bromothiazol-2-yl)-(6R)—N^6-(2-(2-hydroxyethoxy)ethyl)-(4S,7R)-[4,7-ethylene-spiro[2.4]heptane]-5,6-dicarboxamide] are 9230 nM and 11 nM.
For `CC(=O)c1csc(CNC(=O)[C@H]2[C@H](C(=O)NCCCN)[C@H]3C=C[C@@H]2C32CC2)n1` (racemic) [Example 299, (5R*)—N^5-(4-Acetyl-thiazol-2-yl-methyl)-(6R*)—N^6-(3-amino-propyl)-(4S*,7R*)-[4,7-ethenylene-spiro[2.4]heptane]-5,6-dicarboxamide] the same measures were 359 nM and 273 nM.
With `O=C(NCCCCN1CCCC1)[C@H]1[C@H](C(=O)NCCn2ccc3ccccc32)[C@@H]2C=C[C@H]1C21CC1` (racemic) [Example 157, (5R*)—N^5-(2-(1H-Indol-1-yl)-ethyl)-(6R*)—N^6-(4-pyrrolidin-1-yl-butyl)-(4S*,7R*)-[4,7-ethenylene-spiro[2.4]heptane]-5,6-dicarboxamide], the EC50 was 136 nM on human FPRL2 and greater than 25000 nM on human ALX receptor.
Consider `O=C(NCCCCN1CCCC1)[C@H]1[C@H](C(=O)NCc2cc(F)cc(F)c2F)[C@@H]2C=C[C@H]1C21CC1` (racemic) [Example 355, (5R*)—N^5-(2,3,5-Trifluorophenyl-methyl)-(6R*)—N^6-(4-pyrrolidino-butyl)-(4S*,7R*)-[4,7-ethenylene-spiro[2.4]heptane]-5,6-dicarboxamide], for which the EC50 on human FPRL2 amounted to 477 nM; at human ALX receptor it was 7500 nM.
In the same order, the values of `CN1CCN(CCCNC(=O)[C@H]2[C@H](C(=O)NCc3ccc(Br)cc3)[C@@H]3C=C[C@H]2C32CC2)CC1` (racemic) [Example 273, (5R*)—N^5-(4-Bromophenyl-methyl)-(6R*)—N^6-(3-(4-methylpiperazin-1-yl)-propyl)-(4S*,7R*)-[4,7-ethenylene-spiro[2.4]heptane]-5,6-dicarboxamide] are 432 nM and 213 nM.
